Measurements from patent US11767310B2, “Nicotinamide RIPK1 inhibitors” (AbbVie Inc., priority 2021, dated 2023).
Like-named read-outs stand apart in the source and are kept apart here.

Legend:
Experiment in all cases: Kinase binding screen
EPHB4 = EPHB4 (Homo sapiens (Human), UniProt P54760); details: read-out: Percent Control at 100 nM Compound Concentration
RET(M918T) = RET(M918T) (Homo sapiens (Human), UniProt P07949, M918T); details: read-out: Percent Control at 100 nM Compound Concentration
ITK = ITK (Homo sapiens (Human), UniProt Q08881); details: read-out: Percent Control at 100 nM Compound Concentration
SNARK = SNARK (Homo sapiens (Human), UniProt Q9H093); details: read-out: Percent Control at 100 nM Compound Concentration
PIP5K1A = PIP5K1A (Homo sapiens (Human), UniProt Q99755); details: read-out: Percent Control at 100 nM Compound Concentration
PIP5K1A, sequence (Q99755 whole entry): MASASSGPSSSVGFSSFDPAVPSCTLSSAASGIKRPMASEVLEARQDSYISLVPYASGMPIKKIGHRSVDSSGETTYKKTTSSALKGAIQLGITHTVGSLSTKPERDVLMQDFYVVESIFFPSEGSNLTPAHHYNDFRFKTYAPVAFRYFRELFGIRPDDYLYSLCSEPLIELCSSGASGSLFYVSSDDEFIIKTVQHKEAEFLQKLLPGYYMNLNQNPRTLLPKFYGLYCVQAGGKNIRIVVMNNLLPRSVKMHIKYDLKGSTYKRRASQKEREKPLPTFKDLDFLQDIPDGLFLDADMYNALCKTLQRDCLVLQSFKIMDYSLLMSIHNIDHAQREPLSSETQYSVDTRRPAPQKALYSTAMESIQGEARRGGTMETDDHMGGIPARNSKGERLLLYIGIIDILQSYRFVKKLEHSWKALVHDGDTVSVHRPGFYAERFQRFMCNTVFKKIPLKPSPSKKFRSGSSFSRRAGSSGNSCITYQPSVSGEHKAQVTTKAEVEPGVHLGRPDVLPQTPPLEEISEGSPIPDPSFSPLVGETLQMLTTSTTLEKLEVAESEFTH

CAMK1D = CAMK1D (Homo sapiens (Human), UniProt Q8IU85); details: read-out: Percent Control at 100 nM Compound Concentration
EPHA3 = EPHA3 (Homo sapiens (Human), UniProt P29320); details: read-out: Percent Control at 100 nM Compound Concentration
BMPR1B = BMPR1B (Homo sapiens (Human), UniProt O00238); details: read-out: Percent Control at 100 nM Compound Concentration
BMPR1B, sequence (O00238 14-502): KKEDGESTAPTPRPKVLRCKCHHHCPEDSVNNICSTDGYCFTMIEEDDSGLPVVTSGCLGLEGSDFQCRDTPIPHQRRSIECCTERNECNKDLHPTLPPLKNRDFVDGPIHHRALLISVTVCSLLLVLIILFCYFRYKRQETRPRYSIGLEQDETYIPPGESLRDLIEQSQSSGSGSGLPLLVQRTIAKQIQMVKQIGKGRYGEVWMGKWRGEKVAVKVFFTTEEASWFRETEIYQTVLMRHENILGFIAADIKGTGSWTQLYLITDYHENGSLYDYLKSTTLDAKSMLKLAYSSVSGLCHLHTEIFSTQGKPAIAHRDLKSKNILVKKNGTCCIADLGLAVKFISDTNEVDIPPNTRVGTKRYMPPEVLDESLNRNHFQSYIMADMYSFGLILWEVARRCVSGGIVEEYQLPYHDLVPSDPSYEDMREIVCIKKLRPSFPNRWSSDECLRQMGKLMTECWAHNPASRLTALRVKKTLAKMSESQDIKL

VRK2 = VRK2 (Homo sapiens (Human), UniProt Q86Y07); details: read-out: Percent Control at 100 nM Compound Concentration
VRK2, sequence (Q86Y07 whole entry): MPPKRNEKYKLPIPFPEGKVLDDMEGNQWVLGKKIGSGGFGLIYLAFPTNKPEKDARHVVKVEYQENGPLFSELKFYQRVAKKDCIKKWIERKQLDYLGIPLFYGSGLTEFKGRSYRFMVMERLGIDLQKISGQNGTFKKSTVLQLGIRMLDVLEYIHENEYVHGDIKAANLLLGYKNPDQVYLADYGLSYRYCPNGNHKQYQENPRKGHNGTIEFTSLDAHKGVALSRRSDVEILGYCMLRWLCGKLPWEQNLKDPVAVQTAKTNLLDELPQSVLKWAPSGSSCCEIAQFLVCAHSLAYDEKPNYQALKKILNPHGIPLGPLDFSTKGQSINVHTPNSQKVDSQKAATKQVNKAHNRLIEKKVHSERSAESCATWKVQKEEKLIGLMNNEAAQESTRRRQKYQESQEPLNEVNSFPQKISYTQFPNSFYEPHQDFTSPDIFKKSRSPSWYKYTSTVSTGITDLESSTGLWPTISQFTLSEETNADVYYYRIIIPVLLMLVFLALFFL

FLT3(N841I) = FLT3(N841I) (Homo sapiens (Human), UniProt P36888, N841I); details: read-out: Percent Control at 100 nM Compound Concentration
BRK = BRK (Homo sapiens (Human), UniProt Q13882); details: read-out: Percent Control at 100 nM Compound Concentration
BRK, sequence (Q13882 whole entry): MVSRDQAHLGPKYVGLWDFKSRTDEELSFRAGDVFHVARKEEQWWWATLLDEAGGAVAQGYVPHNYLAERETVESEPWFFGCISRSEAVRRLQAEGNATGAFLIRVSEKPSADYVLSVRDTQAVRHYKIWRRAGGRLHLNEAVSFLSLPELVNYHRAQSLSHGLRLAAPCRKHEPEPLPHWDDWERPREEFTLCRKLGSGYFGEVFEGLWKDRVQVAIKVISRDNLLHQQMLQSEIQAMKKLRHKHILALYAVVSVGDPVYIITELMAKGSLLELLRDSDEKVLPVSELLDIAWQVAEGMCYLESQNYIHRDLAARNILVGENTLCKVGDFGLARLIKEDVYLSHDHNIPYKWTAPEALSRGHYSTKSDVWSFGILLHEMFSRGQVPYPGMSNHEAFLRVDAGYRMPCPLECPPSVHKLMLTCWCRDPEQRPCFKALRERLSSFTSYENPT

DYRK1A = DYRK1A (Homo sapiens (Human), UniProt Q13627); details: read-out: Percent Control at 100 nM Compound Concentration
GSK3B = GSK3B (Homo sapiens (Human), UniProt P49841); details: read-out: Percent Control at 100 nM Compound Concentration
GSK3B, sequence (P49841 whole entry): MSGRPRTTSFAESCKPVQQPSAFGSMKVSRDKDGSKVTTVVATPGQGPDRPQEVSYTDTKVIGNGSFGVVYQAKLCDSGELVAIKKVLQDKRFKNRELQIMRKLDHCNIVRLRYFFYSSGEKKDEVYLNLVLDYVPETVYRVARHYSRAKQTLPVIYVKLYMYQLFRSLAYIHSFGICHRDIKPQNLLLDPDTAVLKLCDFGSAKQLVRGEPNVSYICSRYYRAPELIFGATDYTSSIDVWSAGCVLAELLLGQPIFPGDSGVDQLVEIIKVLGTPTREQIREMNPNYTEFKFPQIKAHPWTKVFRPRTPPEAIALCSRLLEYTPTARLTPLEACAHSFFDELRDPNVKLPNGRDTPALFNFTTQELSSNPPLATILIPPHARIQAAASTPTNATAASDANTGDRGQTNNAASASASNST

FES = FES (Homo sapiens (Human), UniProt P07332); details: read-out: Percent Control at 100 nM Compound Concentration
[1] = target: RPS6KA4(Kin.Dom.2-C-terminal) (Homo sapiens (Human), UniProt O75676); details: read-out: Percent Control at 100 nM Compound Concentration
RPS6KA4(Kin.Dom.2-C-terminal), sequence (O75676 411-674): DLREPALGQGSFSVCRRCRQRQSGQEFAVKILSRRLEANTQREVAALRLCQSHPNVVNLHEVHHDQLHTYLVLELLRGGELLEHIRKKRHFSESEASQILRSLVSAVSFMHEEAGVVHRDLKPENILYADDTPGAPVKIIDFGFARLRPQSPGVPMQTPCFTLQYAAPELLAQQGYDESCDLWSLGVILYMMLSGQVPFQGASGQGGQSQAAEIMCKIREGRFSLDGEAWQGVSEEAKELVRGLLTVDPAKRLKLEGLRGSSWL

LATS2 = LATS2 (Homo sapiens (Human), UniProt Q9NRM7); details: read-out: Percent Control at 100 nM Compound Concentration
AXL = AXL (Homo sapiens (Human), UniProt P30530); details: read-out: Percent Control at 100 nM Compound Concentration
AXL, sequence (P30530 26-894): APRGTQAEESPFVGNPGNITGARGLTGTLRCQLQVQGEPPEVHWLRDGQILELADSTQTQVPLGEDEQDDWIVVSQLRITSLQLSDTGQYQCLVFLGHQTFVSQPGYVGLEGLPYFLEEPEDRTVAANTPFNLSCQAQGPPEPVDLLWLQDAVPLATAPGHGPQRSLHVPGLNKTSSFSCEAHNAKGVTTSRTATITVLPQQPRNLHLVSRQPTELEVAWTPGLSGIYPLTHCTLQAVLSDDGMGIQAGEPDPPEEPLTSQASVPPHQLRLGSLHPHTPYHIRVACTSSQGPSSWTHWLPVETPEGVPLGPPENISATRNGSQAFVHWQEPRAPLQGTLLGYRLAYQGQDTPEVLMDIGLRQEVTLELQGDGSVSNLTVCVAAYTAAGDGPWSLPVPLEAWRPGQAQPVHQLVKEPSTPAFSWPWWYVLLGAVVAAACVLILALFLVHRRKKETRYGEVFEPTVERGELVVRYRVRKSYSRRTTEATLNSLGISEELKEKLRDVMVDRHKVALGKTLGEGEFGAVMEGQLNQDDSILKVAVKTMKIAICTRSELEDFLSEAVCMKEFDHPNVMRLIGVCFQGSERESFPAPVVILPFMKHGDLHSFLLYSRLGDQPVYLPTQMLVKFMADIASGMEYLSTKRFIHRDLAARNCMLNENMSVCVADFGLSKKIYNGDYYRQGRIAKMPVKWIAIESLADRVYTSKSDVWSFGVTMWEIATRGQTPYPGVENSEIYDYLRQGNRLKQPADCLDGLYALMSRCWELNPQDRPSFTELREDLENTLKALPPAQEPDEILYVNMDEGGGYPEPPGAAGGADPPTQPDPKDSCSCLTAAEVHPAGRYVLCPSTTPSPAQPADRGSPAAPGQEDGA

CSK = CSK (Homo sapiens (Human), UniProt P41240); details: read-out: Percent Control at 100 nM Compound Concentration
CSK, sequence (P41240 whole entry): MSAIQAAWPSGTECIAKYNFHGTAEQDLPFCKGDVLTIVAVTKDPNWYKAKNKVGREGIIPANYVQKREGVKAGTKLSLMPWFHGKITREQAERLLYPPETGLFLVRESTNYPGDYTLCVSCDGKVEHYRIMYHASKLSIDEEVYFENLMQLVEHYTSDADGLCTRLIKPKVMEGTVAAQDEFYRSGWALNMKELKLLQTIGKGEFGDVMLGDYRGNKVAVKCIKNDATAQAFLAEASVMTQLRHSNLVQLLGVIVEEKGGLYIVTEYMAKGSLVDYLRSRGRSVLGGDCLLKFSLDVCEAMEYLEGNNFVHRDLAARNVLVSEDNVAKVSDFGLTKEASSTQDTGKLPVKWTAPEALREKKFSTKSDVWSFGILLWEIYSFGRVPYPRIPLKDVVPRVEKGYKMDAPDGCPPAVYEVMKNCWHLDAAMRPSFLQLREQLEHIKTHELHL

TNNI3K = TNNI3K (Homo sapiens (Human), UniProt Q59H18); details: read-out: Percent Control at 100 nM Compound Concentration
PLK4 = PLK4 (Homo sapiens (Human), UniProt O00444); details: read-out: Percent Control at 100 nM Compound Concentration
KIT(A829P) = KIT(A829P) (Homo sapiens (Human), UniProt P10721, A829P); details: read-out: Percent Control at 100 nM Compound Concentration
KIT(A829P), sequence (P10721 26-976 A829P): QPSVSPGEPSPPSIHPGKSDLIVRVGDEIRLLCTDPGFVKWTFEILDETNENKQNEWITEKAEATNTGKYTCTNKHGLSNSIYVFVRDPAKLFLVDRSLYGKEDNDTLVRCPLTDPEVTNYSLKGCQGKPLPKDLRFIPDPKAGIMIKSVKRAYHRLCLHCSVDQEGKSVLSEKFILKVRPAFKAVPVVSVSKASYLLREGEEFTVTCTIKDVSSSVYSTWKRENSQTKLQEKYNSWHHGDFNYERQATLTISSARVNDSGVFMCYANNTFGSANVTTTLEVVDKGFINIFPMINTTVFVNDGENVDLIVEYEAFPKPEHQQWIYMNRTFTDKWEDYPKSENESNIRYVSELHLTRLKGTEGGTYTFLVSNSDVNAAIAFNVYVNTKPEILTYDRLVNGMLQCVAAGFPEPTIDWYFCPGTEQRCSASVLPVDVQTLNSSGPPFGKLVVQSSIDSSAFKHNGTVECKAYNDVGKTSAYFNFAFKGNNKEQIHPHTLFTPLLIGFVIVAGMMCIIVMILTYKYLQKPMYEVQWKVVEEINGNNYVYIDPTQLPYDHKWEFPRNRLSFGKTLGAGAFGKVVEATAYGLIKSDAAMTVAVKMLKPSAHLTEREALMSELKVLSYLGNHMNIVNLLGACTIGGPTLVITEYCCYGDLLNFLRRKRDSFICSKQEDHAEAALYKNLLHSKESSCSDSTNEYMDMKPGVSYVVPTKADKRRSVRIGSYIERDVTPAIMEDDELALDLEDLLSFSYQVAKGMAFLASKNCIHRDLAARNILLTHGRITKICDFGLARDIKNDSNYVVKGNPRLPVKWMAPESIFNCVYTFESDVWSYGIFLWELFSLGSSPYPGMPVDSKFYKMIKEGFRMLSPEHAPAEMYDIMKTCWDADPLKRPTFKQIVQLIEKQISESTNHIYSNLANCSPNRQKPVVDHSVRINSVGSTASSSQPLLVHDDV

WNK2 = WNK2 (Homo sapiens (Human), UniProt Q9Y3S1); details: read-out: Percent Control at 100 nM Compound Concentration
FLT3(R834Q) = FLT3(R834Q) (Homo sapiens (Human), UniProt P36888, R834Q); details: read-out: Percent Control at 100 nM Compound Concentration
FLT3(ITD,F691L) = test system: FLT3(ITD,F691L); parameters: species or system human
p38-alpha = p38-alpha (Homo sapiens (Human), UniProt Q16539); details: read-out: Percent Control at 100 nM Compound Concentration
PDGFRB = PDGFRB (Homo sapiens (Human), UniProt P09619); details: read-out: Percent Control at 100 nM Compound Concentration
MAP4K4 = MAP4K4 (Homo sapiens (Human), UniProt O95819); details: read-out: Percent Control at 100 nM Compound Concentration
CSNK1G1 = CSNK1G1 (Homo sapiens (Human), UniProt Q9HCP0); details: read-out: Percent Control at 100 nM Compound Concentration
AAK1 = AAK1 (Homo sapiens (Human), UniProt Q2M2I8); details: read-out: Percent Control at 100 nM Compound Concentration

CN(C[C@H](Cc1ccccc1)OP(=O)(O)O)C(=O)c1cncc(C#Cc2cnn(C(F)F)c2)c1 [Example 19, (S)-1-(5-((1-(difluoromethyl)-1H-pyrazol-4-yl)ethynyl)-N-methylnicotinamido)-3-phenylpropan-2-yl dihydrogen phosphate]
remaining activity at 0.1 µM (EPHB4): 100% | remaining activity at 0.1 µM (RET(M918T)): 100% | remaining activity at 0.1 µM (ITK): 100% | remaining activity at 0.1 µM (SNARK): 99% | remaining activity at 0.1 µM (PIP5K1A): 92% | remaining activity at 0.1 µM (CAMK1D): 74% | remaining activity at 0.1 µM (EPHA3): 100% | remaining activity at 0.1 µM (BMPR1B): 99% | remaining activity at 0.1 µM (VRK2): 95% | remaining activity at 0.1 µM (FLT3(N841I)): 96% | remaining activity at 0.1 µM (BRK): 100% | remaining activity at 0.1 µM (DYRK1A): 85% | remaining activity at 0.1 µM (GSK3B): 98% | remaining activity at 0.1 µM (FES): 100% | remaining activity at 0.1 µM [1]: 100% | remaining activity at 0.1 µM (LATS2): 100% | remaining activity at 0.1 µM (AXL): 96% | remaining activity at 0.1 µM (CSK): 93% | remaining activity at 0.1 µM (TNNI3K): 100% | remaining activity at 0.1 µM (PLK4): 100% | remaining activity at 0.1 µM (KIT(A829P)): 99% | remaining activity at 0.1 µM (WNK2): 100% | remaining activity at 0.1 µM (FLT3(R834Q)): 100% | Percent Control at 100 nM Compound Concentration (FLT3(ITD,F691L)): 97% | remaining activity at 0.1 µM (p38-alpha): 100% | remaining activity at 0.1 µM (PDGFRB): 100% | remaining activity at 0.1 µM (MAP4K4): 95% | remaining activity at 0.1 µM (CSNK1G1): 100% | remaining activity at 0.1 µM (AAK1): 100%

CN(C[C@@H](O)Cc1ccccc1)C(=O)c1cncc(C#Cc2cnn(C(F)F)c2)c1 [Example 2, (S)-5-((1-(difluoromethyl)-1H-pyrazol-4-yl)ethynyl)-N-(2-hydroxy-3-phenylpropyl)-N-methylnicotinamide]
remaining activity at 0.1 µM (EPHB4; EPHB4): 100% | remaining activity at 0.1 µM (RET(M918T); RET(M918T)): 100% | remaining activity at 0.1 µM (ITK; ITK): 99% | remaining activity at 0.1 µM (SNARK; SNARK): 99% | remaining activity at 0.1 µM (PIP5K1A; PIP5K1A): 100% | remaining activity at 0.1 µM (CAMK1D; CAMK1D): 100% | remaining activity at 0.1 µM (EPHA3; EPHA3): 100% | remaining activity at 0.1 µM (BMPR1B; BMPR1B): 98% | remaining activity at 0.1 µM (VRK2; VRK2): 91% | remaining activity at 0.1 µM (FLT3(N841I); FLT3(N841I)): 99% | remaining activity at 0.1 µM (BRK; BRK): 100% | remaining activity at 0.1 µM (DYRK1A; DYRK1A): 90% | remaining activity at 0.1 µM (GSK3B; GSK3B): 100% | remaining activity at 0.1 µM (FES; FES): 100% | remaining activity at 0.1 µM ([1]; RPS6KA4(Kin.Dom.2-C-terminal)): 97% | remaining activity at 0.1 µM (LATS2; LATS2): 98% | remaining activity at 0.1 µM (AXL; AXL): 100% | remaining activity at 0.1 µM (CSK; CSK): 98% | remaining activity at 0.1 µM (TNNI3K; TNNI3K): 100% | remaining activity at 0.1 µM (PLK4; PLK4): 100% | remaining activity at 0.1 µM (KIT(A829P); KIT(A829P)): 100% | remaining activity at 0.1 µM (WNK2; WNK2): 100% | remaining activity at 0.1 µM (FLT3(R834Q); FLT3(R834Q)): 100% | Percent Control at 100 nM Compound Concentration (FLT3(ITD,F691L)): 98% | remaining activity at 0.1 µM (p38-alpha; p38-alpha): 100% | remaining activity at 0.1 µM (PDGFRB; PDGFRB): 100% | remaining activity at 0.1 µM (MAP4K4; MAP4K4): 92% | remaining activity at 0.1 µM (CSNK1G1; CSNK1G1): 100% | remaining activity at 0.1 µM (AAK1; AAK1): 96%
